According to PubChem BioAssay AID588495 (Sanford-Burnham Center for Chemical Genomics, 2011):
“And” between values parts separate entries of the source, which are not always exact repeats. Identical values can stand only once. The source made the active and inactive calls.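 The calls were made as follows: active = mean EC50 of 20 µM or lower; inactive = the rest.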

These molecules were tested against Neurotensin receptor type 2 (Homo sapiens) (UniProt O95665) (assay: NTR2 agonist activity for selectivity, SAR follow-up, selectivity assay for NTR1 agonist project, imaging, NTR2-U2OS cells, beta-arrestin GFP imaging (AID 588495)). Details: image-based GFP translocation.
Chain of Neurotensin receptor type 2 (Homo sapiens) (O95665 whole entry, looked up): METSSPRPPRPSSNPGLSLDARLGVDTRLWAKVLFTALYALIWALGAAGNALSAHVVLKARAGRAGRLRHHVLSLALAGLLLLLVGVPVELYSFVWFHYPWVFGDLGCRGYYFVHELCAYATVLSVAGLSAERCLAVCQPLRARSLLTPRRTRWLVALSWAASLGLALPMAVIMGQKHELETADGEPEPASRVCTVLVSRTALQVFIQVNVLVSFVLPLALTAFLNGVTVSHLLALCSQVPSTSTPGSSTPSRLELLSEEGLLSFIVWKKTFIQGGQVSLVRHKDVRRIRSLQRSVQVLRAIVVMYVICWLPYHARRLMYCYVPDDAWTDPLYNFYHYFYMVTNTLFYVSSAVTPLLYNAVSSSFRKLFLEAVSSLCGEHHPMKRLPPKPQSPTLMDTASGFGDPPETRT

| EC50 | Compound |
| --- | --- |
| > 40 µM (inactive) | COc1cc2nc(SCc3ccncc3)n(Cc3cccc(C(F)(F)F)c3)c(=N)c2cc1OC |
| > 40 µM (inactive) | COc1cccc(OC)c1-c1nc(C(=O)N[C@@H](CC(C)C)C(=O)O)cn1-c1ccc(C)cc1 |
| > 40 µM (inactive) | Cc1ccc(-n2ncc3c(N4CCN(c5ccc(Cl)c(Cl)c5)CC4)ncnc32)c(C)c1 |
| > 40 µM (inactive) | Cc1ccc(-n2ncc3c(N4CCN(c5ccc([N+](=O)[O-])cc5)CC4)ncnc32)c(C)c1 |
| > 40 µM (inactive) | CCOc1ccc(-c2nnc3c4cc(OC)c(OC)cc4n(Cc4ccc(C)cc4)cc2-3)cc1 |
| > 40 µM (inactive) | COc1ccc(N2CCN(c3nc(C4CCC4)nc4cc(OC)c(OC)cc34)CC2)cc1 |
| > 40 µM (inactive) | COc1cccc(OC)c1-c1cc(C(=O)N[C@@H](CC(C)C)C(=O)OC(C)(C)C)nn1-c1ccnc2cc(Cl)ccc12 |
| 4.47 µM | COc1cc2c3nnc(-c4ccc(F)cc4)c-3cn(Cc3cccc(C)c3)c2cc1OC |
| > 40 µM (inactive) | O=C(O)c1nc(-c2ccnc3ccccc23)c(-c2ccccc2)s1 |
| > 40 µM (inactive) | COc1cccc2c(C(=O)N[C@@H](CC(C)C)C(=O)O)cn(-c3ccnc4cc(Cl)ccc34)c12 |
| > 40 µM (inactive) | CCCSc1nc2cc(OC)c(OC)cc2c(=N)n1Cc1ccccc1Cl |
| 6.02 µM | COc1cc2c3nnc(-c4ccc(F)cc4)c-3cn(Cc3ccccc3)c2cc1OC |
| > 40 µM (inactive) | COc1ccc(Cn2c(SCc3cc(C)ccc3C)nc3cc(OC)c(OC)cc3c2=N)cc1Cl |
| > 40 µM (inactive) | CCOc1cc2c(N3CCN(c4ccccc4OC)CC3)nc(-c3ccc(OC)c(OC)c3)nc2cc1OC |
| > 40 µM (inactive) | COc1cccc2c(C(=O)N[C@@H](CC(C)C)C(=O)O)cn(-c3ccnc4ccccc34)c12 |
| > 40 µM (inactive) | COc1ccccc1-c1nc(C(=O)N[C@@H](CC(C)C)C(=O)O)cn1-c1ccnc2cc(Cl)ccc12 |
| > 40 µM (inactive) | COc1ccc(Cn2c(SCc3cccc(C(F)(F)F)c3)nc3cc(OC)c(OC)cc3c2=N)cc1Cl |
| > 40 µM (inactive) | CC(C)C[C@H](NC(=O)c1cn(-c2ccnc3ccccc23)c2c(OCc3ccccc3)cccc12)C(=O)O |
| > 40 µM (inactive) | COc1ccc(Cn2c(SCc3ccccc3C)nc3cc(OC)c(OC)cc3c2=N)cc1Cl |
| > 40 µM (inactive) | Fc1ccc(-n2ncc3c(N4CCN(c5ccccc5)CC4)ncnc32)cc1 |
| 5.38 µM | COc1cc2c3nnc(-c4ccc(C)cc4)c-3cn(Cc3ccc(C)cc3)c2cc1OC |
| > 40 µM (inactive) | c1ccc(N2CCN(c3ncnc4c3cnn4-c3ccccc3)CC2)cc1 |

| EC50 | Compound |
| --- | --- |
| > 40 µM (inactive) | Cc1ccc(-n2ncc3c(N4CCN(c5ccc(F)cc5)CC4)ncnc32)c(C)c1 |
| > 40 µM (inactive) | CC(C)C[C@H](NC(=O)c1cn(-c2ccnc3ccccc23)c2ccccc12)C(=O)O |
| > 40 µM (inactive) | Cc1ccc(/C=N/Nc2nc(-c3ccc(S(=O)(=O)N(C)C)cc3)cs2)cc1 |
| > 40 µM (inactive) | CN(C)S(=O)(=O)c1ccc(-c2csc(N/N=C/c3cccc(Cl)c3)n2)cc1 |
| > 40 µM (inactive) | COc1ccc(Cn2c(SCc3ccccc3)nc3cc(OC)c(OC)cc3c2=N)cc1Cl |
| > 40 µM (inactive) | Clc1ccc(-n2ncc3c(N4CCN(c5ccccc5)CC4)ncnc32)cc1 |
| > 40 µM (inactive) | COc1cc2c3nnc(-c4ccccc4)c-3cn(Cc3ccc(C)cc3)c2cc1OC |
| inactive | CCc1ccc(-c2nnc3c4cc(OC)c(OC)cc4n(Cc4ccc(F)cc4)cc2-3)cc1 |
| > 40 µM (inactive) | COc1ccc(/C=N/Nc2nc(-c3ccc(S(=O)(=O)N(C)C)cc3)cs2)cc1OC |
| > 40 µM (inactive) | COc1ccccc1-c1cc(C(=O)O)nn1-c1ccnc2cc(Cl)ccc12 |
| > 40 µM (inactive) | Cc1ccc(-n2ncc3c(N4CCN(c5cccc(Cl)c5)CC4)ncnc32)c(C)c1 |
| > 40 µM (inactive) | CC(C)C[C@H](NC(=O)c1nc(-c2ccncc2)c(-c2ccccc2)s1)C(=O)O |
| > 40 µM (inactive) | CCN(CC)S(=O)(=O)c1ccc(-c2csc(N/N=C/c3ccco3)n2)cc1 |
| > 40 µM (inactive) | COc1cc2ncnc(N3CCN(c4ccccc4OC)CC3)c2cc1OC |
| > 40 µM (inactive) | COc1cccc(N2CCN(c3ncnc4c3cnn4-c3ccc(C)cc3C)CC2)c1 |
| > 40 µM (inactive) | Cc1ccc(C)c(-n2ncc3c(N4CCN(c5ccccc5)CC4)ncnc32)c1 |
| > 40 µM (inactive) | COc1ccccc1N1CCN(c2ncnc3c2cnn3-c2ccc(C)cc2C)CC1 |
| 4.14 µM and 3.32 µM | COc1cc2c3nnc(-c4ccc(F)cc4)c-3cn(Cc3ccc(C)cc3)c2cc1OC |
| > 40 µM (inactive) | COc1cccc(OC)c1-c1cc(C(=O)O)nn1-c1ccnc2cc(Cl)ccc12 |
| > 40 µM (inactive) | COc1ccccc1-c1nc(C(=O)N[C@@H](CC(C)C)C(=O)O)cn1-c1ccnc2ccccc12 |
| > 40 µM (inactive) | COc1cc2nc(C3CCC3)nc(N3CCN(c4ccccc4Cl)CC3)c2cc1OC |
| 9.69 µM | COc1cc2c3nnc(-c4ccc(F)cc4)c-3cn(Cc3ccc(F)cc3)c2cc1OC |

| EC50 | Compound |
| --- | --- |
| > 40 µM (inactive) | COc1cc2c3nnc(-c4ccccc4)c-3cn(Cc3ccc(F)cc3)c2cc1OC |
| 6.4 µM | COc1cc2c3nnc(-c4ccc(C)cc4)c-3cn(Cc3ccc(F)cc3)c2cc1OC |
| > 40 µM (inactive) | COc1cc2nc(C3CCC3)nc(N3CCN(c4ccccc4OC)CC3)c2cc1OC |
| > 40 µM (inactive) | CC(=O)c1ccc(N2CCN(c3ncnc4c3cnn4-c3ccc(C)cc3C)CC2)cc1 |
| > 40 µM (inactive) | COc1cc2nc(-c3ccccc3)nc(N3CCN(c4ccccc4F)CC3)c2cc1OC |
| > 40 µM (inactive) | O=S(=O)(c1ccc(-c2csc(N/N=C/c3ccco3)n2)cc1)N1CCOCC1 |
| > 40 µM (inactive) | COc1cccc(OC)c1-c1nc(C(=O)N[C@@H](CC(C)C)C(=O)O)cn1-c1ccnc2cc(Cl)ccc12 |
| > 40 µM (inactive) | COc1cc2nc(C3CCC3)nc(N3CCN(c4ccccc4)CC3)c2cc1OC |
| > 40 µM (inactive) | COc1ccccc1-c1nc(C(=O)N[C@@H](CC(C)C)C(=O)O)cn1-c1ccncc1 |
| > 40 µM (inactive) | CC(C)C[C@H](NC(=O)c1cn(-c2ccnc3cc(Cl)ccc23)c(-c2ccccc2)n1)C(=O)O |
| inactive | COc1cc2c3nnc(-c4ccc(C)c(C)c4)c-3cn(Cc3ccc(C)cc3)c2cc1OC |
| 4.38 µM | COc1cc2c3nnc(-c4ccc(C)c(C)c4)c-3cn(Cc3ccc(F)cc3)c2cc1OC |
| > 40 µM (inactive) | Cc1cccc(-n2ncc3c(N4CCN(c5ccccc5)CC4)ncnc32)c1 |
| > 40 µM (inactive) | CCOc1ccc(-c2nnc3c4cc(OC)c(OC)cc4n(Cc4ccccc4)cc2-3)cc1 |
| > 40 µM (inactive) | c1ccc(Cn2cc3c(-c4ccccc4)nnc-3c3ccccc32)cc1 |
| > 40 µM (inactive) | CCc1ccc(-c2nnc3c4cc(OC)c(OC)cc4n(Cc4ccccc4)cc2-3)cc1 |
| > 40 µM (inactive) | Cc1ccc(-n2ncc3c(N4CCN(c5cc(C)ccc5C)CC4)ncnc32)c(C)c1 |
| > 40 µM (inactive) | Cc1cc(Cl)ccc1-n1ncc2c(N3CCN(c4ccccc4)CC3)ncnc21 |
| > 40 µM (inactive) | COc1cc2nc(-c3ccccc3)nc(N3CCN(c4ccc(F)cc4)CC3)c2cc1OC |
| > 40 µM (inactive) | CC(C)C[C@H](NC(=O)c1cn(-c2ccncc2)c(-c2ccccc2)n1)C(=O)O |
| > 40 µM (inactive) | COc1ccccc1-c1cc(C(=O)N[C@@H](CC(C)C)C(=O)O)nn1-c1ccnc2cc(Cl)ccc12 |
| inactive | CCOc1ccc(-c2nnc3c4cc(OC)c(OC)cc4n(Cc4ccc(F)cc4)cc2-3)cc1 |

| EC50 | Compound |
| --- | --- |
| > 40 µM (inactive) | CC(C)C[C@H](NC(=O)c1nc(-c2ccnc3ccccc23)c(-c2ccccc2)s1)C(=O)O |
| > 40 µM (inactive) | COc1cc2nc(-c3ccccc3)nc(N3CCN(c4ccccc4)CC3)c2cc1OC |
| 5.48 µM | COc1ccc(-c2nnc3c4cc(OC)c(OC)cc4n(Cc4ccc(C)cc4)cc2-3)cc1 |
| > 40 µM (inactive) | CC(C)C[C@H](NC(=O)c1cn(-c2ccnc3cc(Cl)ccc23)c(-c2c(Cl)cccc2Cl)n1)C(=O)O |
| > 40 µM (inactive) | CN(C)S(=O)(=O)c1ccc(-c2csc(N/N=C/c3cccs3)n2)cc1 |
| > 40 µM (inactive) | COc1ccc(N2CCN(c3ncnc4c3cnn4-c3ccc(C)cc3C)CC2)cc1 |
| > 40 µM (inactive) | COc1cc2nc(C)nc(N3CCN(c4ccccc4OC)CC3)c2cc1OC |
| > 40 µM (inactive) | COc1cccc(OC)c1-c1nc(C(=O)NC2(C(=O)O)C3CC4CC(C3)CC2C4)cn1-c1ccnc2cc(Cl)ccc12 (configuration not stated) |
| > 40 µM (inactive) | Cc1cccc(C)c1-c1nc(C(=O)N[C@@H](CC(C)C)C(=O)O)cn1-c1ccnc2cc(Cl)ccc12 |
| > 40 µM (inactive) | COc1cccc(OC)c1-c1nc(C(=O)N[C@@H](CC(C)C)C(=O)O)cn1-c1cccc2ccccc12 |
| > 40 µM (inactive) | COc1cc2nc(-c3ccccc3)nc(N3CCN(c4ccccc4OC)CC3)c2cc1OC |
| > 40 µM (inactive) | Cc1ccc(-n2ncc3c(N4CCN(c5ccccc5F)CC4)ncnc32)c(C)c1 |
| > 40 µM (inactive) | COc1ccc(-n2ncc3c(N4CCN(c5ccccc5)CC4)ncnc32)cc1 |
| > 40 µM (inactive) | COc1cc2c3nnc(-c4ccc(C)c(C)c4)c-3cn(Cc3ccccc3)c2cc1OC |
| > 40 µM (inactive) | CCOc1cc2nc(-c3ccc(OC)c(OC)c3)nc(N3CCN(c4ccccc4)CC3)c2cc1OC |
| > 40 µM (inactive) | COc1cc2nc(C3CCC3)nc(N3CCN(c4ccccc4F)CC3)c2cc1OC |
| > 40 µM (inactive) | COc1ccc2c(c1)c1nnc(-c3ccc(F)cc3)c-1cn2Cc1ccc(C)cc1 |
| 19.9 µM | COc1cc2c3nnc(-c4ccc(Cl)cc4)c-3cn(Cc3ccc(C)cc3)c2cc1OC |
| > 40 µM (inactive) | COc1cc2nc(-c3ccccc3)nc(N3CCN(c4ccc(Cl)cc4)CC3)c2cc1OC |
| > 40 µM (inactive) | COc1ccccc1-c1cc(C(=O)N[C@@H](CC(C)C)C(=O)OC(C)(C)C)nn1-c1ccnc2cc(Cl)ccc12 |
| 8.38 µM | COc1cc2c3nnc(-c4ccc(Cl)cc4)c-3cn(Cc3ccccc3)c2cc1OC |
